# Molecular target: IRAK4 (Homo sapiens (Human), UniProt Q9NWZ3)
# Assay: IRAK-4 AlphaScreen biochemical kinase assay
# Details: 1 nM IRAK4, 1 mM ATP, 3.5 h at RT
# Method: The biochemical assay is in a AlphaScreen format. The kinase reaction is based on the IRAK-4 phosphorylation of a biotin labeled peptide. The phosphopeptide is incubated with anti-phosphothreonine antibody as well as streptavidin- and protein A-coated beads. Binding of the protein-A coated beads to the antibody and the streptavidin beads to the peptide, leads to an energy transfer from one bead to the other, ultimately producing a luminescent/fluorescent signal.
# Chain of IRAK4 (Q9NWZ3 whole entry, species assumed): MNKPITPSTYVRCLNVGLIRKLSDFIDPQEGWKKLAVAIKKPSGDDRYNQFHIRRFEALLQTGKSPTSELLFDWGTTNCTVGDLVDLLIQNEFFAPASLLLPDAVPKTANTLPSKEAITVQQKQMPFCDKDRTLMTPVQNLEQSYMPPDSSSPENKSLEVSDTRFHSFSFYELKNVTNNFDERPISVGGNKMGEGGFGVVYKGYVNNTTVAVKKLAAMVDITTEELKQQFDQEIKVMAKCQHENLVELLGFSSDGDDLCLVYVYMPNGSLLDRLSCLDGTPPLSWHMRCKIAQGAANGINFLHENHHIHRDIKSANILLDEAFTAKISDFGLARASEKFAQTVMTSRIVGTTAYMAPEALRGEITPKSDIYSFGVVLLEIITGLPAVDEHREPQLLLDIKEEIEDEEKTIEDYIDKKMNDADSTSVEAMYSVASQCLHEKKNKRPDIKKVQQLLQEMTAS
row,Structure (SMILES),IC50 [nM]
1,"N#CC[C@H](N)c1cccc(-c2ccc3cnn(-c4cccc(CO)n4)c3c2)n1 [Example 591, (S)-3-amino-3-(6-(1-(6-(hydroxymethyl)pyridin-2-yl)-1H-indazol-6-yl)pyridin-2-yl)propanenitrile]",< 100
2,"C[C@H](N)c1cccc(-c2cc(-c3ccnn3C(F)F)c3cnn(-c4cccc(CO)n4)c3c2)n1 [Example 387, (S)-(6-(6-(6-(1-aminoethyl)pyridin-2-yl)-4-(1-(difluoromethyl)-1H-pyrazol-5-yl)-1H-indazol-1-yl)pyridin-2-yl)methanol]",< 100
3,"C[C@H](N)c1cccc(-c2cc(OCCCO)c3cnn(-c4cccc(CO)n4)c3c2)n1 [Example 459, (S)-3-((6-(6-(1-aminoethyl)pyridin-2-yl)-1-(6-(hydroxymethyl)pyridin-2-yl)-1H-indazol-4-yl)oxy)propan-1-ol]",< 100
4,"Cc1cccc(-n2ncc3ccc(-c4ccc(C)c(C(C)N)n4)cc32)n1 (stereo not drawn) [Example 281, 1-(3-methyl-6-(1-(6-methylpyridin-2-yl)-1H-indazol-6-yl)pyridin-2-yl)ethanamine]",< 100
5,"Nc1cc(C(=O)O)cc(-c2ccc3cnn(-c4cccc(C(F)(F)F)n4)c3c2)c1 [Example 85, 3-amino-5-(1-(6-(trifluoromethyl)pyridin-2-yl)-1H-indazol-6-yl)benzoic Acid]",< 100
6,"C/C(=N/O)c1cccc(-c2cc(N(C)C(=O)OC(C)(C)C)c3cnn(-c4cccc(C)n4)c3c2)n1 [Example 226, (Z)-tert-butyl (6-(6-(1-(hydroxyimino)ethyl)pyridin-2-yl)-1-(6-methylpyridin-2-yl)-1H-indazol-4-yl)(methyl)carbamate]",> 10000
7,"Cc1cccc(-n2ncc3cc(F)c(-c4cncc(N)c4)cc32)n1 [Example 43, 5-(5-fluoro-1-(6-methylpyridin-2-yl)-1H-indazol-6-yl)pyridin-3-amine]",100 to 1000
8,"CCC[C@H](N)c1cccc(-c2cc(OCC(C)(C)O)c3cnn(-c4cccc(CO)n4)c3c2)n1 [Example 471, (S)-1-((6-(6-(1-aminobutyl)pyridin-2-yl)-1-(6-(hydroxymethyl)pyridin-2-yl)-1H-indazol-4-yl)oxy)-2-methylpropan-2-ol]",< 100
9,"CCC[C@H](N)c1cccc(-c2cc(-c3cc(C)n(C)n3)c3cnn(-c4cccc(CO)n4)c3c2)n1 [Example 389, (S)-(6-(6-(6-(1-aminobutyl)pyridin-2-yl)-4-(1,5-dimethyl-1H-pyrazol-3-yl)-1H-indazol-1-yl)pyridin-2-yl)methanol]",< 100
10,"N#Cc1ccnc(-n2ncc3ccc(-c4cncc(N)c4)cc32)n1 [Example 37, 2-(6-(5-aminopyridin-3-yl)-1H-indazol-1-yl)pyrimidine-4-carbonitrile]",< 100
11,"C=C(C)c1cc(-c2cccc(C(C)N)n2)cc2c1cnn2-c1cccc(C)n1 (stereo not drawn) [Example 108, 1-(6-(1-(6-methylpyridin-2-yl)-4-(prop-1-en-2-yl)-1H-indazol-6-yl)pyridin-2-yl)ethanamine]",< 100
12,"Cc1cccc(-n2ncc3ccc(-c4ccc(C(F)(F)F)c(C(C)N)n4)cc32)n1 (stereo not drawn) [Example 255, 1-(6-(1-(6-methylpyridin-2-yl)-1H-indazol-6-yl)-3-(trifluoromethyl)pyridin-2-yl)ethanamine]",100 to 1000
13,"CC[C@H](N)c1cccc(-c2cc(OCCOC)c3cnn(-c4cccc(CO)n4)c3c2)n1 [Example 587, (S)-(6-(6-(6-(1-aminopropyl)pyridin-2-yl)-4-(2-methoxyethoxy)-1H-indazol-1-yl)pyridin-2-yl)methanol]",< 100
14,"CCC[C@H](N)c1cccc(-c2ccc3cnn(-c4cncc(C)n4)c3c2)n1 [Example 590, (S)-1-(6-(1-(6-methylpyrazin-2-yl)-1H-indazol-6-yl)pyridin-2-yl)butan-1-amine]",< 100
15,"CC(N)c1cccc(-c2ccc3cnc(-c4cccc(C(F)(F)F)n4)n3c2)n1 (stereo not drawn) [Example 79, 1-(6-(3-(6-(trifluoromethyl)pyridin-2-yl)imidazo[1,5-a]pyridin-6-yl)pyridin-2-yl)ethanamine]",< 100
16,"Cc1ccn(-c2cc(-c3cccc([C@H](C)N)n3)cc3c2cnn3-c2cccc(CO)n2)n1 [Example 353, (S)-(6-(6-(6-(1-aminoethyl)pyridin-2-yl)-4-(3-methyl-1H-pyrazol-1-yl)-1H-indazol-1-yl)pyridin-2-yl)methanol]",< 100
17,"Cc1cccc(-n2ncc3ccc(-c4cncc(N)c4O)cc32)n1 [Example 12, 3-amino-5-(1-(6-methylpyridin-2-yl)-1H-indazol-6-yl)pyridin-4-ol]",1000 to 10000
18,"CCc1cccc(-c2ncc3ccc(-c4cccc(C(C)N)n4)cn23)n1 (stereo not drawn) [Example 293, 1-(6-(3-(6-ethylpyridin-2-yl)imidazo[1,5-a]pyridin-6-yl)pyridin-2-yl)ethanamine]",< 100
19,"N#CCCNC(=O)c1cccc(-n2ncc3ccc(-c4cncc(N)c4)cc32)n1 [Example 70, 6-(6-(5-aminopyridin-3-yl)-1H-indazol-1-yl)-N-(2-cyanoethyl)picolinamide]",1000 to 10000
20,"C=CC[C@H](N)c1cccc(-c2ccc3cnn(-c4cccc(CO)n4)c3c2)n1 [Example 435, (S)-(6-(6-(6-(1-aminobut-3-en-1-yl)pyridin-2-yl)-1H-indazol-1-yl)pyridin-2-yl)methanol]",< 100

row,Structure (SMILES),IC50 [nM]
1,"Cc1cccc(-n2ncc3ccc(-c4cccc(C(N)CCO)n4)cc32)n1 (stereo not drawn) [Example 247, 3-amino-3-(6-(1-(6-methylpyridin-2-yl)-1H-indazol-6-yl)pyridin-2-yl)propan-1-ol]",< 100
2,"CC(N)c1cccc(-c2ccc3cnn(-c4cccc(C(C)(C)C(N)=O)n4)c3c2)n1 (stereo not drawn) [Example 301, 2-(6-(6-(6-(1-aminoethyl)pyridin-2-yl)-1H-indazol-1-yl)pyridin-2-yl)-2-methylpropanamide]",100 to 1000
3,"N#CCc1cccc(-n2ncc3ccc(-c4cncc(N)c4)cc32)n1 [Example 81, 2-(6-(6-(5-aminopyridin-3-yl)-1H-indazol-1-yl)pyridin-2-yl)acetonitrile]",100 to 1000
4,"NCc1cncc(-c2ccc3cnn(-c4cccc(C(F)(F)F)n4)c3c2)n1 [Example 93, (6-(1-(6-(trifluoromethyl)pyridin-2-yl)-1H-indazol-6-yl)pyrazin-2-yl)methanamine]",1000 to 10000
5,"CCCC(N)c1cccc(-c2ccc3cnn(-c4cccc(C)n4)c3c2)n1 (stereo not drawn) [Example 132, 1-(6-(1-(6-methylpyridin-2-yl)-1H-indazol-6-yl)pyridin-2-yl)butan-1-amine]",< 100
6,"Cc1cccc(-n2ncc3ccc(-c4cn(C)c(CN)n4)cc32)n1 [Example 300, (1-methyl-4-(1-(6-methylpyridin-2-yl)-1H-indazol-6-yl)-1H-imidazol-2-yl)methanamine]",1000 to 10000
7,"N#Cc1nccc(-c2ccc3cnn(-c4cccc(C(F)(F)F)n4)c3c2)n1 [Example 94, 4-(1-(6-(trifluoromethyl)pyridin-2-yl)-1H-indazol-6-yl)pyrimidine-2-carbonitrile]",1000 to 10000
8,"Cc1cccc(-n2ncc3c(C4CC4)cc(-c4cccc(C(C)N)n4)cc32)n1 (stereo not drawn) [Example 107, 1-(6-(4-cyclopropyl-1-(6-methylpyridin-2-yl)-1H-indazol-6-yl)pyridin-2-yl)ethanamine]",100 to 1000
9,"CNC(=O)c1cc(-c2cccc(C(C)N)n2)cc2c1cnn2-c1cccc(CO)n1 (stereo not drawn) [Example 316, 6-(6-(1-aminoethyl)pyridin-2-yl)-1-(6-(hydroxymethyl)pyridin-2-yl)-N-methyl-1H-indazole-4-carboxamide]",< 100
10,"CCCC(N)c1cccc(-c2ccc3cnn(-c4cccc(C(F)(F)F)n4)c3c2)n1 (stereo not drawn) [Example 268, 1-(6-(1-(6-(trifluoromethyl)pyridin-2-yl)-1H-indazol-6-yl)pyridin-2-yl)butan-1-amine]",< 100
11,"CNc1cc(-c2cccc(/C(C)=N\O)n2)cc2c1cnn2-c1cccc(C)n1 [Example 227, (Z)-1-(6-(4-(methylamino)-1-(6-methylpyridin-2-yl)-1H-indazol-6-yl)pyridin-2-yl)ethanone oxime]",1000 to 10000
12,"Cc1cccc(-n2ncc3ccc(-c4cccc(C(C)(C)N)n4)cc32)n1 [Example 298, 2-(6-(1-(6-methylpyridin-2-yl)-1H-indazol-6-yl)pyridin-2-yl)propan-2-amine]",100 to 1000
13,"CCOc1cc(-c2cccc([C@@H](N)c3ccccc3)n2)cc2c1cnn2-c1cccc(CO)n1 [Example 440, (S)-(6-(6-(6-(amino(phenyl)methyl)pyridin-2-yl)-4-ethoxy-1H-indazol-1-yl)pyridin-2-yl)methanol]",< 100
14,"Cc1cnc(-n2ncc3ccc(-c4cccc(C(C)N)n4)cc32)s1 (stereo not drawn) [Example 135, 1-(6-(1-(5-methylthiazol-2-yl)-1H-indazol-6-yl)pyridin-2-yl)ethanamine]",100 to 1000
15,"Cc1cccc(-n2ncc3ccc(-c4cc(N)cc(C(C)N)n4)cc32)n1 (stereo not drawn) [Example 256, 2-(1-aminoethyl)-6-(1-(6-methylpyridin-2-yl)-1H-indazol-6-yl)pyridin-4-amine]",< 100
16,"CNc1cncc(-c2ccc3cnn(-c4cccc(C)n4)c3c2)c1 [Example 13, N-methyl-5-(1-(6-methylpyridin-2-yl)-1H-indazol-6-yl)pyridin-3-amine]",100 to 1000
17,"CC(=O)NCc1cc(-c2cccc(C(C)N)n2)cc2c1cnn2-c1cccc(C)n1 (stereo not drawn) [Example 105, N-((6-(6-(1-aminoethyl)pyridin-2-yl)-1-(6-methylpyridin-2-yl)-1H-indazol-4-yl)methyl)acetamide]",100 to 1000
18,"Cc1cccc(-n2ncc3ccc(-c4cccc(CCN)n4)cc32)n1 [Example 254, 2-(6-(1-(6-methylpyridin-2-yl)-1H-indazol-6-yl)pyridin-2-yl)ethanamine]",100 to 1000
19,"CCc1cccc(-n2ncc3ccc(-c4cccc(C(C)=O)n4)cc32)n1 [Example 228, 1-(6-(1-(6-ethylpyridin-2-yl)-1H-indazol-6-yl)pyridin-2-yl)ethanone]",100 to 1000
